Experimental findings from ChEMBL document CHEMBL3046279, “Comparison of larvicidal, adulticidal and acaricidal activity of two geometrical butylidenephthalide isomers” (2006) are described below.

Active and inactive are the calls of the source. No cut-off for these calls is given here.

Assay [1] concerns Tyrophagus putrescentiae. Put plainly: Ratio of N,N-diethyl-m-toulamide (DEET) LC50 to compound LC50 for Tyrophagus putrescentiae. Format: functional.
Assay [2] concerns Dermatophagoides farinae. As to the kind of experiment: Acaricidal activity against Dermatophagoides farinae assessed as mortality at 50 ug/cm2 after 24 hr relative to control. It counts as functional.
The subject of assay [3] is Tyrophagus putrescentiae. As to the kind of experiment: Acaricidal activity against Tyrophagus putrescentiae assessed as mortality at 5 ug/cm2 after 24 hr relative to control. Format: functional.
Assay [4] deals with Tyrophagus putrescentiae. As to the kind of experiment: Acaricidal activity against Tyrophagus putrescentiae assessed as mortality at 2.5 ug/cm2 after 24 hr relative to control. Format: functional.
In assay [5] the test system is Drosophila melanogaster. Put plainly: Adulticidal activity against Drosophila melanogaster […] assessed as mortality measured per adult. Format: functional.
The test system of assay [6] is Drosophila melanogaster. Put plainly: Ratio of rotenone LC50 to compound LC50 for Drosophila melanogaster larvae. It counts as functional.
Assay [7] has as its system Dermatophagoides farinae. As to the kind of experiment: Acaricidal activity against Dermatophagoides farinae assessed as mortality at 2.5 ug/cm2 after 24 hr relative to control. Format: functional.
Assay [8] concerns Dermatophagoides farinae. Put plainly: Acaricidal activity against Dermatophagoides farinae assessed as mortality at 10 ug/cm2 after 24 hr relative to control. It counts as functional.
The test system of assay [9] is Tyrophagus putrescentiae. Put plainly: Acaricidal activity against Tyrophagus putrescentiae assessed as mortality at 20 ug/cm2 after 24 hr relative to control. It counts as functional.
The subject of assay [10] is Dermatophagoides farinae. Put plainly: Ratio of N,N-diethyl-m-toulamide (DEET) LC50 to compound LC50 for Dermatophagoides farinae. It counts as functional.
Assay [11] deals with Drosophila melanogaster. Put plainly: Ratio of rotenone LD50 to compound LD50 for adult Drosophila melanogaster. It counts as functional.
For assay [12], the system named is Drosophila melanogaster. As to the kind of experiment: Larvicidal activity against Drosophila melanogaster larvae assessed as mortality administered through diet after 8 days. Format: functional.
For assay [13], the system named is Dermatophagoides farinae. As to the kind of experiment: Acaricidal activity against Dermatophagoides farinae assessed as mortality after 24 hr relative to control. Format: functional.
The test system of assay [14] is Tyrophagus putrescentiae. Put plainly: Acaricidal activity against Tyrophagus putrescentiae assessed as mortality at 50 ug/cm2 after 24 hr relative to control. Format: functional.
Assay [15] concerns Dermatophagoides farinae. As to the kind of experiment: Acaricidal activity against Dermatophagoides farinae assessed as mortality at 5 ug/cm2 after 24 hr relative to control. Format: functional.
The subject of another assay is Ctenocephalides felis. As to the kind of experiment: Insecticidal activity against adult Ctenocephalides felis at 200 ug/cm2. Format: functional, organism-based.
Assay [16] deals with Tyrophagus putrescentiae. As to the kind of experiment: Acaricidal activity against Tyrophagus putrescentiae assessed as mortality after 24 hr. Format: functional.
The test system of assay [17] is Dermatophagoides farinae. As to the kind of experiment: Acaricidal activity against Dermatophagoides farinae assessed as mortality at 20 ug/cm2 after 24 hr relative to control. Format: functional.
In assay [18] the test system is Tyrophagus putrescentiae. Put plainly: Acaricidal activity against Tyrophagus putrescentiae assessed as mortality at 10 ug/cm2 after 24 hr relative to control. Format: functional.
The test system of assay [19] is Dermatophagoides farinae. Put plainly: Acaricidal activity against Dermatophagoides farinae assessed as mortality at 40 ug/cm2 after 24 hr relative to control. Format: functional.
Assay [20] deals with Tyrophagus putrescentiae. As to the kind of experiment: Acaricidal activity against Tyrophagus putrescentiae assessed as mortality at 30 ug/cm2 after 24 hr relative to control. Format: functional.
For assay [21], the system named is Dermatophagoides farinae. Put plainly: Acaricidal activity against Dermatophagoides farinae assessed as mortality at 30 ug/cm2 after 24 hr relative to control. Format: functional.
Assay [22] relates to Tyrophagus putrescentiae. As to the kind of experiment: Acaricidal activity against Tyrophagus putrescentiae assessed as mortality at 100 ug/cm2 after 24 hr relative to control. It counts as functional.

Consider `CCC/C=C1\OC(=O)c2ccccc21` [Z-butylidenephthalide], for which the figures for the RatioLC50 in the assay with Tyrophagus putrescentiae [1], in the assay with Drosophila melanogaster [6] and with Dermatophagoides farinae [10] were 0.8, 0.023 and 2.25, respectively. The figures for the mortality at 50 µg/cm2 in the assay with Dermatophagoides farinae [2] and with Tyrophagus putrescentiae [14] were 100% and 74.1%, respectively. Further, the figures for the mortality at 5 µg/cm2 in the assay on Tyrophagus putrescentiae [3] and with Dermatophagoides farinae [15] were 12.9% and 32.1%, respectively. The mortality at 2.5 µg/cm2 came to 7.8% with Tyrophagus putrescentiae [4] and 15.6% with Dermatophagoides farinae [7]. Moreover, in the assay on Drosophila melanogaster [5], the LD50 is 0.84 µg. Further, the mortality at 10 µg/cm2 in the assay with Dermatophagoides farinae [8] came out at 77.8%; with Tyrophagus putrescentiae [18], 22.8%. Also, the mortality at 20 µg/cm2 was 56.3% in the assay with Tyrophagus putrescentiae [9] and 100% with Dermatophagoides farinae [17]. Further, in the assay on Drosophila melanogaster [11], the Ratio is recorded as 4.38. In addition, the LC50 in the assay on Drosophila melanogaster [12] came out at 940 µM; in the assay on Dermatophagoides farinae [13] it was 5.76 microg/cm2; in the assay on Tyrophagus putrescentiae [16] it was 20.37 microg/cm2. Besides, the result with Ctenocephalides felis was inactive.

`C=C(C)[C@H]1Cc2c(ccc3c2O[C@@H]2COc4cc(OC)c(OC)cc4[C@@H]2C3=O)O1` [ROTENONE]: the LD50 in the assay with Drosophila melanogaster [5] came out at 3.68 µg. The LC50 in the assay with Drosophila melanogaster [12] was 20 µM.

As for `CCC/C=C1/OC(=O)c2ccccc21` [(E)-BUTYLIDENEPHTHALIDE], the figures for the RatioLC50 in the assay on Tyrophagus putrescentiae [1], in the assay on Drosophila melanogaster [6] and in the assay with Dermatophagoides farinae [10] were 0.64, 0.01 and 2.78, respectively. Moreover, the figures for the mortality at 50 µg/cm2 in the assay on Dermatophagoides farinae [2] and in the assay on Tyrophagus putrescentiae [14] were 100% and 57.2%, respectively. In addition, the mortality at 2.5 µg/cm2 in the assay on Tyrophagus putrescentiae [4] worked out at 12.3%; in the assay on Dermatophagoides farinae [7], 12.2%. Besides, the LD50 with Drosophila melanogaster [5] was found to be 0.94 µg. The mortality at 10 µg/cm2 with Dermatophagoides farinae [8] amounted to 94.7%; with Tyrophagus putrescentiae [18], 33%. Also, the values for the mortality at 20 µg/cm2 in the assay on Tyrophagus putrescentiae [9] and in the assay on Dermatophagoides farinae [17] were 52.9% and 100%, respectively. In the assay with Drosophila melanogaster [11], the Ratio is 3.91. The LC50 was 2070 µM in the assay on Drosophila melanogaster [12], 4.67 microg/cm2 in the assay on Dermatophagoides farinae [13] and 25.56 microg/cm2 in the assay on Tyrophagus putrescentiae [16]. Moreover, the mortality at 5 µg/cm2 in the assay on Dermatophagoides farinae [15] stood at 51.6%. In addition, the outcome in the assay with Ctenocephalides felis was inactive.

For the molecule `CCN(CC)C(=O)c1cccc(C)c1` [DIETHYLTOLUAMIDE], the mortality at 50 µg/cm2 with Dermatophagoides farinae [2] and in the assay on Tyrophagus putrescentiae [14] was 100% in each case. Besides, the mortality at 40 µg/cm2 in the assay on Dermatophagoides farinae [19] was 100%. In addition, the results for the mortality at 10 µg/cm2 in the assay on Dermatophagoides farinae [8] and in the assay with Tyrophagus putrescentiae [18] were 33.2% and 20.8%, respectively. For the same molecule, the mortality at 30 µg/cm2 with Tyrophagus putrescentiae [20] amounted to 81.1%; in the assay on Dermatophagoides farinae [21], 100%. Also, the LC50 in the assay on Dermatophagoides farinae [13] is reported as 12.98 microg/cm2; with Tyrophagus putrescentiae [16], 16.28 microg/cm2. In the assay on Tyrophagus putrescentiae [22], the mortality at 100 µg/cm2 was 100%. In addition, the mortality at 20 µg/cm2 with Dermatophagoides farinae [17] is 72.2%.
